# Measured values taken from patent US20100303833A1, “Method for Identifying a MHC Class H-Dependent Tumor Associated T Helper Cell Antigen” (priority 2005, published 2010).
# Ends that are not written are not given here.
# Experiments:
# Type in all cases: cell-based, human
# Th35-1A cells = experiment: Lymphocyte proliferation assay ([3H]-thymidine incorporation), Th35-1A cells with peptide-pulsed monocytes; conditions: for HLA dependence of peptide recognition by Th35-1A: peptide-pulsed autologous DR7+ monocytes, anti-HLA class II antibody or control mouse Ig at 10 μg/mL (FIG. 2A)
# Method: (§1) Lymphocyte Proliferation Assay. The lymphocyte proliferation assay was performed according to standard methods (Somasundaram, et al. (1995) J. Immunol. 155:3253-61). For screening of Th35-1A cell-reactivity with phage libraries, T helper cells (1-2×10^4/well of 96-well round-bottom microtiter plates; CORNING, Corning, N.Y.) were cultured with irradiated autologous EBV-B cells (10^4/well) pre-pulsed with 1-3×10^3 phage. To determine T helper or PBMC reactivity with peptide, adherent monocytes (5×10^4/well, obtained from PBMC) pre-pulsed with various concentrations (3.1-50 μM) of peptide were incubated with Th35-1A cells or PBMC (5×10^4/well). T helper cells or PBMC were stimulated with peptide-pulsed monocytes once or twice. All incubations were at 37° C. for 5 days in RPMI 1640/GLUTAMAX medium supplemented with 10% heat-inactivated human AB serum (Gemini Bioproducts, West Sacramento, Calif.), 10 mM HEPES and 5×10^−5 M 2-mercaptoethanol (both from SIGMA-ALDRICH). Proliferative responses of lymphocytes were determined using a standard [^3H]-thymidine incorporation assay. All determinations were performed in triplicate. Results are expressed as counts per minute (cpm) incorporated into lymphocytes. The lymphocyte proliferation inhibition assay with anti-HLA class II antibody B33.1 was performed using established methods (Somasundaram, et al. (1995) supra).
# PBMC = experiment: Lymphocyte proliferation assay ([3H]-thymidine incorporation), PBMC with peptide-pulsed autologous monocytes
# Method: as §1
# lymphocytes = experiment: IFN-γ release assay (ELISA)
# Method: IFN-γ Release Assay. Supernatants obtained 48 hours after T helper cell stimulation with phage-pulsed EBV-B cells were tested for the presence of IFN-γ using an ENDOGEN ELISA kit (Pierce Biotechnology, Inc., Rockford, Ill.).
sequence,measurement,setting,value
"TGRLRGTKTVQEKEN [peptide #2, RPL8 position 243-257]",Recognition by Th35-1A,Th35-1A cells; after presentation by autologous monocytes (FIG. 2A),recognized
same,Presentation of peptide to Th35-1A cells by allogeneic DR7+ monocytes,Th35-1A cells; allogeneic DR7+ monocytes (FIG. 2C),presented
same,Presentation of peptide to Th35-1A cells by DR7− monocytes,Th35-1A cells; allogeneic DR7− monocytes (FIG. 2D),did not
same,HLA dependence of peptide recognition by Th35-1A,Th35-1A cells,HLA class II-dependent
same,HLA dependence of peptide recognition by Th35-1A,Th35-1A cells; listed as RPL8 peptide #2,HLA DR7- and peptide concentration-dependent
same,"Th35-1A proliferation, dependence on peptide concentration","Th35-1A cells; peptide-pulsed autologous monocytes, various concentrations (FIG. 2B)",peptide concentration-dependent
same,Proliferation of autologous PBMC following peptide stimulation,"PBMC; lymphocytes from two of the three DR7+ melanoma patients (FIGS. 3A-3C), stimulated twice",significantly and specifically proliferated
same,Lymphoproliferative responses to peptide stimulation,"PBMC; two DR7− melanoma patients (FIGS. 3D, 3E) and four healthy donors (FIG. 3F), one peptide stimulation, listed as RPL8 peptide #2",did not respond
same,IFN-γ produced,"lymphocytes; non-proliferating lymphocytes from two DR7− patients (FIGS. 3D, 3E) and healthy donor (FIG. 3F)",< 12 pg/mL
same,IFN-γ produced maximally,lymphocytes; proliferating lymphocytes from DR7+ patient of FIG. 3A,124.3±1.67 pg per mL
same,IFN-γ produced maximally,lymphocytes; proliferating lymphocytes from DR7+ patient of FIG. 3B,224.3±4.3 pg per mL
